This is an account of results in patent publication US12427149B2, “Methods and compositions for the prevention and treatment of hearing loss” (Ting Therapeutics, Inc., priority 2019, dated 2025).

SMILES strings stand for the structures. pIC50: −log10 of the molar value. Like-named read-outs stand apart in the source and are kept apart here.

The test system of data set [1] is HEI-OC1 cells. The experiment in a line: Protection against cisplatin-induced Caspase-3/7 activity in HEI-OC1 cells (Caspase-Glo 3/7). The format is cell-based, mouse. Conditions: for pIC50: Mus musculus, HEI-OC1; for protection against cisplatin-induced cell death in HEI-OC1 (in words): kinase inhibitor library screen. As to the method:
A screen of a library composed of 75 kinase inhibitors was conducted to identify inhibitors that protect against cisplatin-induced hair cell loss.

In another data set the test system is mouse cochlear explants. The experiment in a line: tissue or blood. As to conditions: for pIC50: Mus musculus; for protection against cisplatin-induced hair cell loss/death in mouse cochlear explants (in words): cisplatin 150 μM. How it is done:
Dab alone or Dab added 1 h before cisplatin (150 μM) to P3 FVB cochlear explants for 24 h.
Now referring to FIG. 9, testing of a B-Raf/MEK1/2 inhibitor combination in mouse cochlear explant cultures. Compounds alone or combination of the compounds were added 1 h before cisplatin (150 μM) to P3 FVB cochlear explants for 24 h, and number of outer hair cells per 160 μm of middle turn regions of the cochlea were counted by phalloidin staining, mean±SEM, P=*<0.05, P=***<0.001, compared to cisplatin alone by unpaired two-tailed Student's t-test.
Methods of using a zebrafish model system to evaluate small molecules capable of decreasing, inhibiting or preventing sensory hair cell damage or death are provided. Zebrafish are an advantageous animal model system for studying causes and prevention of hearing loss in comparison to mammalian animal model systems. The relative inaccessibility of hair cells in mammalian organisms limits their use as a high throughput model for identifying compounds that would prevent toxin mediated and other forms of hair cell death from occurring. The lateral line neuromast hair cells of zebrafish (Danio rerio) are structurally and functionally similar to mammalian sensory hair cells. […] Compounds alone or compounds added 1 h before cisplatin (150 μM) to P3 FVB cochlear explants for 24 h, and number of outer hair cells per 160 μm of middle turn regions of the cochlea were counted by phalloidin staining, mean±SEM, P=*<0.05, P=**<0.005, ***P<0.0005 compared to cisplatin alone by unpaired two-tailed Student's t-test.
Compounds alone (purple bar) or combination of the compounds were added 1 h before cisplatin (150 μM) to P3 FVB cochlear explants for 24 hrs, and number of outer hair cells per 160 μm of middle turn regions of the cochlea were counted by phalloidin staining, mean±SEM, P=*<0.05, P=**<0.005, compared to cisplatin alone by unpaired two-tailed Student's t-test.

Data set [2] relates to zebrafish lateral line neuromast hair cells. The experiment in a line: Protection of zebrafish lateral line neuromast hair cells in vivo against cisplatin. Further details: species or system zebrafish (Danio rerio). As to the method:
Lateral line neuromasts of zebrafish were stained and number of hair cells per neuromast were counted. Cisplatin (CP): 400 μM. *, **, and ***: P<0.05, 0.01, and 0.001 compared to CP alone.
Protection of zebrafish lateral line neuromast hair cells in vivo. […] After the treatment, animals were transferred to fresh fish water to recover for 1 hour and then fixed and immunostained for GFP and otoferlin. Quantification of the number of hair cells per neuromast after the different treatments represented as mean+/−SEM. Student's t test was performed, *p<0.05, **p<0.01, ***p<0.001, compared versus CP 400 μM. Neuromasts inspected: SO3 (supraorbital line neuromast) and O1-2 (otic line neuromasts) from at least 3 different animals.

The test system of another data set is B-RAF, ERK and MEK. Briefly: Western blots of cisplatin activated B-Raf signaling cascade in HEI-OC1 cells. Conditions: 50 μM cisplatin, 1 hour; dose dependent. In kind it is cell-based, mouse. The text has this: Western blots show representative changes of each signaling molecule upon cisplatin and Dab treatment at specific doses (5B) and times (5A).
Data set [3] concerns HEI-OC1 cells. As to conditions: CELLTITER-GLO.
[4] abbreviates: Table 1, read-out: HEI-OC1 cell line IC50.
The mark [5] stands for this setting: read-out: Mouse cochlear explant IC50.
[6] abbreviates: read-out: IC50, protection against cisplatin-induced hair cell loss in mouse cochlear explants.

As for `CC1(COc2ccc3c(c2)ncn3-c2ccc3cccc(N4CCC(N)CC4)c3n2)COC1` [Crenolanib], the pIC50 in the data set on HEI-OC1 cells [1] (setting [4]) is 5.62; with mouse cochlear explants (setting [5]), 6.46. The “protection against cisplatin-induced cell death in HEI-OC1 (in words)” value (from here on “protection … in HEI-OC1 (in words)”) in the data set on HEI-OC1 cells [1] is “potently protected”. Besides, the “protection against cisplatin-induced hair cell loss/death in mouse cochlear explants (in words)” value in the data set with mouse cochlear explants (listed as CRENOLANIB) is reported as “potently protected”; in the data set on mouse cochlear explants (listed as crenolanib), “protected”.

As for `CC(C)(C)c1nc(-c2cccc(NS(=O)(=O)c3c(F)cccc3F)c2F)c(-c2ccnc(N)n2)s1` [Dabrafenib], in data set [2] (FIG. 11A), the “Zebrafish cisplatin protection at concentration” value worked out at 0.100 µM. For the same compound, in data set [2] (Table 1, protective concentration, cisplatin 400 μM), the Zebrafish protection amounted to 0.100 µM. In addition, the pIC50 with HEI-OC1 cells [1] (setting [4]) was 4.87; in the data set on mouse cochlear explants (setting [6]) it was 7.52; in the data set on mouse cochlear explants (setting [5]) it was 7.52. For the same compound, the “protection … in HEI-OC1 (in words)” value in the data set on HEI-OC1 cells [1] was “potently protected”. Further, in the data set on mouse cochlear explants (FVB, mouse, 24 h), the “LD50 in mouse cochlear explants” value is 13.47 µM. For the same compound, the “protection against cisplatin-induced hair cell loss/death in mouse cochlear explants (in words)” value in the data set with mouse cochlear explants is listed as “potently protected”. The “effect on cisplatin-mediated activation of B-RAF, ERK and MEK (in words)” value in the data set with B-RAF, ERK and MEK was “mitigates”.

`FC(F)(F)c1ccc(/C=C/c2nc(COc3ccc(CCCCn4ccnn4)cc3)co2)cc1` [Mubritinib]: the “LD50 in HEI-OC1 cells” value in the data set on HEI-OC1 cells [3] was above 55 µM. For the same compound, the pIC50 in the data set with HEI-OC1 cells [1] (setting [4]) is 7.41; in the data set with HEI-OC1 cells [1] (read-out: IC50, protection against cisplatin-induced Caspase-3/7 activity in HEI-OC1 cells) it was 8.40; in the data set with mouse cochlear explants (setting [6]) it was 8.60; in the data set on mouse cochlear explants (setting [5]) it was 8.70. In addition, in the data set with HEI-OC1 cells [1], the “protection … in HEI-OC1 (in words)” value was “potently protected”. In the data set on mouse cochlear explants (FVB, mouse), the “LD50 in mouse cochlear explants” value is above 0.5 µM. Also, the “protection against cisplatin-induced hair cell loss/death in mouse cochlear explants (in words)” value in the data set on mouse cochlear explants is listed as “potently protected”.

Take `CCCS(=O)(=O)Nc1ccc(F)c(C(=O)c2c[nH]c3ncc(Cl)cc23)c1F` [PLX-4750]: the pIC50 in the data set with mouse cochlear explants (setting [6]) was 6.70. The “protection against cisplatin-induced hair cell loss/death in mouse cochlear explants (in words)” value in the data set with mouse cochlear explants is listed as “protected”.

For the compound `CCOc1cc2ncc(C#N)c(Nc3ccc(F)c(Cl)c3)c2cc1NC(=O)/C=C/CN(C)C` [Pelitinib], in the data set on HEI-OC1 cells [1] (cisplatin-Caspase-Glo 3/7, read-out: IC50, protection against cisplatin-induced Caspase-3/7 activity in HEI-OC1 cells), the pIC50 was 6.22. Moreover, the “protection of outer hair cells against cisplatin-induced hair cell loss in mouse cochlear explants” value in the data set on mouse cochlear explants (1 hour pre-incubation, N=3) was found to be 49%.

`Cn1c(Nc2ccc(C(F)(F)F)cc2)nc2cc(Oc3ccnc(-c4ncc(C(F)(F)F)[nH]4)c3)ccc21` [RAF-265]: the “LD50 in mouse cochlear explants” value with mouse cochlear explants (FVB, mouse, 24 h) is on record as “greater than 3 μM”. The pIC50 in the data set on mouse cochlear explants (setting [6]) was 7.70. The “protection against cisplatin-induced hair cell loss/death in mouse cochlear explants (in words)” value with mouse cochlear explants is recorded as “protected”.

As for `O=C(Nc1cccc(Cl)c1)Nc1ncc(CCNc2ncnc3ccsc23)s1` [SNS-314], the pIC50 was 5.13 with HEI-OC1 cells [1] (setting [4]) and 7.30 in the data set with mouse cochlear explants (setting [5]). For the same compound, in the data set with HEI-OC1 cells [1], the “protection … in HEI-OC1 (in words)” value was “potently protected”. For the same compound, the “protection against cisplatin-induced hair cell loss/death in mouse cochlear explants (in words)” value was “protected” with mouse cochlear explants and “potently protected” in the data set with mouse cochlear explants (listed as SNS314).

Consider `CC(=O)Nc1cccc(-n2c(=O)n(C3CC3)c(=O)c3c(Nc4ccc(I)cc4F)n(C)c(=O)c(C)c32)c1` [Trametinib], for which the “LD50 in mouse cochlear explants” value in the data set with mouse cochlear explants was “greater than 3 μM”. The pIC50 with mouse cochlear explants (setting [6]) is 7.30.

With `CCCS(=O)(=O)Nc1ccc(F)c(C(=O)c2c[nH]c3ncc(-c4ccc(Cl)cc4)cc23)c1F` [Vemurafenib], the “LD50 in mouse cochlear explants” value with mouse cochlear explants (FVB, mouse, 24 h) is recorded as “greater than 3 μM”. Also, in the data set with mouse cochlear explants (setting [6]), the pIC50 is around 6.70.
